Test results published in patent publication US20030134859A1 (SANKYO COMPANY, LIMITED, priority 2000, published 2003).
Structures can show the parent of a compound that is named as a salt.

Experiments:
[1] = system: Mouse preadipocyte strain 3T3-L1; experiment: Inhibition of differentiation as an indication of acetic acid uptake; format: cell-based; conditions: Mus musculus, 3T3-L1, 0.1 μM test substance, control (0.01% dimethylsulfoxide) = 100%, read-out: Rate of Uptake (%) of [2-14C] acetic acid
Protocol: As the basal medium, Dulbecco's modified Eagle's (DEM) medium (NISSUI PHARMACEUTICAL CO., LTD) was used. […] All culturing in the present Test Example was carried out in a CO2 incubator at 37° C. and 10% CO2 concentration.
The successively cultured 3T3-L1 cells were inoculated in a Biocoat Collagen I 96-well white/clear plate (Becton Dickinson and Co.) at a concentration of 4,900 cells/well, and were cultured in the basal medium containing added 10% (v/v) inactivated bovine fetal serum (FBS) for 10 days.
The medium was replaced with a differentiation-inducing medium in which inactivated FBS (final concentration: 5%), insulin (Sigma-Aldrich Japan K. K., final concentration: 10 μg/mL), isobutyl methyl xanthine (Aldrich K. K., final concentration: 0.5 mM) and dexamethazone (final concentration: 1 μM) were added so as to be at the final concentrations indicated in the parentheses. The cells were divided in the following 2 groups and were cultured for 4 days; 1) in the presence of 0.01% (v/v) dimethylsulfoxide, and 2) in the presence of 0.01% (v/v) dimethylsulfoxide in which was dissolved 1 mM of the test substance (final concentration of 0.1 μM). Then, the medium was further replaced with a maintenance medium in which inactivated […] and insulin were added to the base medium so as to be at final concentrations of 5% and 100 ng/mL, respectively, and the cells were cultured for 2 days.
The inhibitory activity of the test compound against cell differentiation was assayed by using uptake of [2-^14C] acetic acid into the cultured cells as an indicator. […] Then the cells were further incubated with the newly prepared medium for 1 hr. After washing the well with PBS (−), the cells were dried. To these wells, 100 μL/well of a scintillation cocktail (Hewlett-Packard Co., MICROSCINT-20 PACKARD) were added and their radioactivities were determined with a Packard TopCont microplate Scintillation Counter (Hewlett-Packard Co., PACKARD) and the uptake level of [2-^14C] acetic acid into the cultured cell was calculated.
On the basis of the calculated uptake level of [2-^14C] acetic acid into the cultured cells, the relative uptake level of [2-^14C] acetic acid in the group treated with the test compound was calculated against the uptake level of [2-^14C] acetic acid in the presence of 0.01% (v/v) dimethylsulfoxide solution described in 1) (100%).
Value=Uptake Level (cpm) of [2-^14C] Acetic Acid in the Presence of the Test Substance
Control=Uptake Level (cpm) of [2-^14C] Acetic Acid in the Control Group (0.01% dimethylsulfoxide)
Uptake Rate (%) of [2-^14C] Acetic Acid=100×[Value]/[Control]

Rat white adipocytes = experiment: Stimulation of differentiation of the adipocytes (Oil Red O); format: cell-based; conditions: 100 nM test compound, 5 days, Oil Red O ABS550, control = 100%, blank = 0%, Table 7; for activity at 0.1 µM: Rattus norvegicus, Adipocyte, 120 h, read-out: Rate of Differentiation (%)
Protocol: Rat white adipocytes contained in the white adipocyte culture kit, which was purchased from HOKUDO, were used. Mediums for proliferation and for differentiation-inducing, which were contained in the white adipocyte culture kit purchased from HOKUDO, were used.
Immediately after arrival of the purchased cells, all medium for transportation was discarded and replaced with 5 ml of proliferation medium (/25 cm^2-flask) and the cells were cultured for one day. Then, a cell suspension was prepared with proliferation medium so as to be 83,000 cells/mL, and the suspension was plated into a type I 96-well collagen-coated microplate (SUMITOMO BAKELITE CO., ltd.) so as to be 5,000 cells/well (60 μL/well). For the blank, the proliferation medium without the cells was plated into the well (blank well) of each plate.
Further, 1) in the group treated with the test compound, 3 μL/well of a solution in which the test compound (100 μM) was dissolved in DMSO solution and diluted with differentiation-inducing medium by 20 times (final concentration of the test compound: 100 nM, final concentration of DMSO: 0.1% (v/v)) were added to the well where the cells were plated. 2) In the control group, 3 μL/well of DMSO solution that was diluted with differentiation-inducing medium by 20 times (final concentration of DMSO: 0.1% (v/v)) were added to the well where the cells were plated. Further, 3) in the blank group, 3 μL/well of DMSO solution that was diluted with differentiation-inducing medium by 20 times (final concentration: 0.1% (v/v)) were added to the blank well.
After culturing for 5 days, all differentiation-inducing medium was discarded and replaced with 60 μL of 10% (v/v) of formaldehyde solution (for fixation) in each well and the cells were kept stationary for 20 min at room temperature. After this the fixative solution was discarded and replaced with 60 μL of 0.2% (v/v) Triton X (Sigma-Aldrich Japan K. K.) solution in each well and kept stationary for 5 min at the room temperature. Then all Triton X solution was discarded and replaced with 60 μL of 60% (v/v) isopropanol solution containing dissolved Oil Red 0 (Sigma-Aldrich Japan K. K.) so as to be 0.3%, which was adipose tissue staining solution, and the well was left stationary for 10 min at room temperature. After the adipose tissue staining solution was discarded, the well was washed twice with 60 μL of 60% (v/v) isopropanol solution. Then, 100 μL of the DMSO were added to each well and stirred for 5 min at room temperature. The absorbance was measured at 550 nm (ABS550) with a multi-plate reader (LabsSystems), and the stained amount by Oil Red 0 was determined. The measured level at ABS550 in the control group was defined as 100%, while the level at ABS550 in the blank group was defined as 0%. The differentiation rate (%) of the adipocytes treated with the test compound was calculated.

leptin production = experiment: Enhancing activity for leptin production in adipocytes (ELISA); format: cell-based, rat; conditions: leptin concentration as % of control group; for Facilitating activity to produce leptin: 24 hr
Procedure, shortened: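 Leptin release, quantified by rat leptin ELISA, expressed as percent of 0.1% DMSO control after 24 h at 37 °C. Cells were floating adipocytes isolated by collagenase digestion of epididymal fat from male 6-week Wistar Imamichi rats; compound tested at 1 nM–1 µM final.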

[2] = Rattus norvegicus, Adipocyte, 24 h, read-out: Facilitating activity to produce leptin
[3] = Rattus norvegicus, Adipocyte, 24 h, 100 nm, read-out: Facilitating activity to produce leptin

SMILES	activity at 0.1 µM (Rat white adipocytes) [%]	also measured
N#Cc1ccccc1NC(=O)c1cc([N+](=O)[O-])ccc1Cl [Example 22, N-(2-Cyanophenyl)-(2-chloro-5-nitrophenyl)carboxamide]	127	activity at 0.1 µM [1]: 51.5%
CCNc1ccc(NC(=O)c2cc([N+](=O)[O-])ccc2Cl)cc1 [Example 115, N-(4-Ethylaminophenyl)-(2-chloro-5-nitrophenyl)carboxamide mono-hydrochloride]	147	–
CCN(CC)c1ccc(NC(=O)c2cc([N+](=O)[O-])ccc2Cl)c(C)c1 [Example 131, N-[4-(Diethylamino)-2-methylphenyl]-(2-chloro-5-nitrophenyl)carboxamide]	132	–
O=C(Nc1ccc(N2CCNCC2)cc1)c1cc([N+](=O)[O-])ccc1Cl [Example 133, N-[4-(Piperazin-1-yl)phenyl]-(2-chloro-5-nitrophenyl)carboxamide]	141	–
CCCCCCNc1ccc(NC(=O)c2cc([N+](=O)[O-])ccc2Cl)cc1 [Example 137, N-(4-n-Hexylaminophenyl)-(2-chloro-5-nitrophenyl)carboxamide]	150	–
CC(C)(C)c1cc(C(=O)Nc2cccc(NC(=O)c3cc([N+](=O)[O-])ccc3Cl)c2)cc(C(C)(C)C)c1O [Example 162, N-[3-[(3,5-di-tert-Butyl-4-hydroxybenzoyl)amino]phenyl]-(2-chloro-5-nitrophenyl)carboxamide]	170	activity at 1 µM (leptin production; [2]): 111%
CC(C)(C)OC(=O)N1CCN(C(=O)c2ccc(NC(=O)c3cc([N+](=O)[O-])ccc3Cl)cc2)CC1 [Example 166, N-[4-(4-tert-Butoxycarbonylpiperazin-1-ylcarbonyl)phenyl]-(2-chloro-5-nitrophenyl)carboxamide]	115	activity at 1 µM (leptin production; [2]): 114%; activity at 0.1 µM (leptin production; [3]): 115%
CCOC(=O)Cc1ccc(NC(=O)c2cc([N+](=O)[O-])ccc2Cl)cc1 [Example 168, Ethyl [4-(2-chloro-5-nitrobenzoylamino)phenyl]acetate]	140	–
Cl.NCCc1ccc(NC(=O)c2cc([N+](=O)[O-])ccc2Cl)cc1 [Example 169, N-[4-(2-Aminoethyl)phenyl]-(2-chloro-5-nitrophenyl)carboxamide Hydrochloride 0.2 Hydrate]	–	Facilitating activity to produce leptin (leptin production; 100 nm): 111.6%; Rate of Differentiation (%) (Rat white adipocytes): 114.9%
O=C(O)Cc1ccc(NC(=O)c2cc([N+](=O)[O-])ccc2Cl)cc1 [Example 170, [4-(2-Chloro-5-nitrobenzoylamino)phenyl]acetic Acid]	115	activity at 0.1 µM (leptin production; [3]): 117%
CCN(CC)c1ccc(NC(=O)c2cc([N+](=O)[O-])ccc2Cl)cc1 [Example 172, N-(4-Diethylaminophenyl)-(2-chloro-5-nitrophenyl)carboxamide]	120	–
CN(C)c1ccc(NC(=O)c2cc([N+](=O)[O-])ccc2Cl)cc1 [Example 173, N-(4-Dimethylaminophenyl)-(2-chloro-5-nitrophenyl)carboxamide]	134	activity at 1 µM (leptin production; [2]): 119%; activity at 0.001 µM (leptin production; Rattus norvegicus, Adipocyte, 24 h, 1 nm, read-out: Facilitating activity to produce leptin): 112%
CC(=O)N1CCN(c2ccc(NC(=O)c3cc([N+](=O)[O-])ccc3Cl)cc2)CC1 [Example 183, N-[4-(4-Acetylpiperazin-1-yl)phenyl]-(2-chloro-5-nitrophenyl)carboxamide]	118	activity at 0.1 µM (leptin production; [3]): 112%
O=C(Nc1ccc(S(=O)(=O)Nc2ccc(-n3ccnc3)cc2)cc1)c1cc([N+](=O)[O-])ccc1Cl [Example 187, N-[[4-[4-(Imidazol-1-yl)phenyl]aminosulfonyl]phenyl]-(2-chloro-5-nitrophenyl)carboxamide]	–	Facilitating activity to produce leptin (leptin production; 10 nm): 113.3%; Facilitating activity to produce leptin (leptin production; 100 nm): 126.2%; Rate of Differentiation (%) (Rat white adipocytes): 112.7%
Nc1ccc2nc(NC(=O)c3cc([N+](=O)[O-])ccc3Cl)sc2c1 [Example 261, N-(6-Aminobenzothiazol-2-yl]-(2-chloro-5-nitrophenyl)carboxamide]	129	–
CS(=O)(=O)Nc1ccc(-c2csc(NC(=O)c3cc([N+](=O)[O-])ccc3Cl)n2)cc1 [Example 262, N-[4-(4-Methanesulfonylaminophenyl)thiazol-2-yl]-(2-chloro-5-nitrophenyl)carboxamide]	167	–
CC(=O)Nc1ccc(-c2csc(NC(=O)c3cc([N+](=O)[O-])ccc3Cl)n2)cc1 [Example 263, N-[4-(4-Acetylaminophenyl)thiazol-2-yl]-(2-chloro-5—nitrophenyl)carboxamide]	154	–
NC(=O)N1CCN(c2ccc(NC(=O)c3cc([N+](=O)[O-])ccc3Cl)cc2)CC1 [Example 264, N-[4-[(4-Aminocarbonyl)piperazin-1-yl]phenyl]-(2-chloro-5-nitrophenyl)carboxamide]	–	Rate of Differentiation (%) (Rat white adipocytes): 111.5%
CC(=O)Nc1cccc(-c2csc(NC(=O)c3cc([N+](=O)[O-])ccc3Cl)n2)c1 [Example 277, N-[4-(3-Acetylaminophenyl)thiazol-2-yl]-(2-chloro-5-nitrophenyl)carboxamide]	123	–
CC(=O)Nc1ccc2nc(NC(=O)c3cc([N+](=O)[O-])ccc3Cl)sc2c1 [Example 280, N-(6-Acetylaminobenzothiazol-2-yl)-(2-chloro-5-nitrophenyl)carboxamide]	190	–
NC(=O)Nc1ccc2nc(NC(=O)c3cc([N+](=O)[O-])ccc3Cl)sc2c1 [Example 281, N-(6-Aminocarbonylaminobenzothiazol-2-yl)-(2-chloro-5-nitrophenyl)carboxamide]	200	–
